Read-outs that look alike come from different tables or passages of the source. Peptide text beside a SMILES is read from it. * marks the point of attachment. Stearoyl = CCCCCCCCCCCCCCCCCC(=O)*
How the values were obtained:
HIV-1 89.6 = assay type: cell-based; conditions: Table 2; 89.6, subtype B, R5X4; mean ± SD of 3 assays in triplicate
Summary of the method: (§1)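 Env-pseudotyped luciferase-reporter viruses (pSG3Δenv backbone) or replication-competent clones made in HEK293T. 3-fold inhibitor dilutions preincubated 1 h at room temperature with 100 TCID50 virus, then added to TZM-bl cells (10^4/well) for 48 h at 37 °C; inhibition read as luciferase activity.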

HIV-1 CH040.c/2625 = assay type: cell-based; conditions: Table 2; CH040.c/2625, subtype B, R5; mean ± SD of 3 assays in triplicate
Summary of the method: as §1

HIV-1 LAI = assay type: cell-based; conditions: Table 2, subtype B, X4, mean ± SD of 3 assays in triplicate
Summary of the method: as §1

[1] = system: HIV-1 pseudovirus, primary Env AC10.0.29; assay type: cell-based; conditions: Env AC10.0.29, subtype B; mean ± SD of 3 assays in triplicate
Summary of the method: as §1

[2] = system: HIV-1 pseudovirus, primary Env AE03; assay type: cell-based; conditions: Env AE03, subtype A/E; mean ± SD of 3 assays in triplicate
Summary of the method: as §1

[3] = system: HIV-1 pseudovirus, primary Env B01; assay type: cell-based; conditions: Env B01, subtype B'; mean ± SD of 3 assays in triplicate
Summary of the method: as §1

[4] = system: HIV-1 pseudovirus, primary Env B04; assay type: cell-based; conditions: Env B04, subtype B'; mean ± SD of 3 assays in triplicate
Summary of the method: as §1

[5] = system: HIV-1 pseudovirus, primary Env CAP210.2.00.E8; assay type: cell-based; conditions: Env CAP210.2.00.E8, subtype C; mean ± SD of 3 assays in triplicate
Summary of the method: as §1

[6] = system: HIV-1 pseudovirus, primary Env CAP45.2.00.G3; assay type: cell-based; conditions: Env CAP45.2.00.G3, subtype C; mean ± SD of 3 assays in triplicate
Summary of the method: as §1

[7] = system: HIV-1 pseudovirus, primary Env CH070.1; assay type: cell-based; conditions: Env CH070.1, subtype B/C; mean ± SD of 3 assays in triplicate
Summary of the method: as §1

[8] = system: HIV-1 pseudovirus, primary Env CH110; assay type: cell-based; conditions: Env CH110, subtype B/C; mean ± SD of 3 assays in triplicate
Summary of the method: as §1

[9] = system: HIV-1 pseudovirus, primary Env CH119.10; assay type: cell-based; conditions: Env CH119.10, subtype B/C; mean ± SD of 3 assays in triplicate
Summary of the method: as §1

[10] = system: HIV-1 pseudovirus, primary Env CNE8; assay type: cell-based; conditions: Env CNE8, subtype A/E; mean ± SD of 3 assays in triplicate
Summary of the method: as §1

[11] = system: HIV-1 pseudovirus, primary Env Du156; assay type: cell-based; conditions: Env Du156, subtype C; mean ± SD of 3 assays in triplicate
Summary of the method: as §1

[12] = system: HIV-1 pseudovirus, primary Env HIV_25710–2.43; assay type: cell-based; conditions: Env HIV_25710–2.43, subtype C; mean ± SD of 3 assays in triplicate
Summary of the method: as §1

[13] = system: HIV-1 pseudovirus, primary Env JRFL; assay type: cell-based; conditions: subtype B, mean ± SD of 3 assays in triplicate
Summary of the method: as §1

[14] = system: HIV-1 pseudovirus, primary Env PVO; assay type: cell-based; conditions: subtype B, mean ± SD of 3 assays in triplicate
Summary of the method: as §1

[15] = system: HIV-1 pseudovirus, primary Env SF162; assay type: cell-based; conditions: Env SF162, subtype B; mean ± SD of 3 assays in triplicate
Summary of the method: as §1

[16] = system: HIV-1 pseudovirus, primary Env TRO.11; assay type: cell-based; conditions: Env TRO.11, subtype B; mean ± SD of 3 assays in triplicate
Summary of the method: as §1

[17] = system: HIV-1 pseudovirus, primary Env ZM53M.PB12; assay type: cell-based; conditions: Env ZM53M.PB12, subtype C; mean ± SD of 3 assays in triplicate
Summary of the method: as §1

[18] = system: HIV-1 pseudovirus, primary Env pREJO4541; assay type: cell-based; conditions: Env pREJO4541, subtype B; mean ± SD of 3 assays in triplicate
Summary of the method: as §1

HIV-1JRCSF = assay type: cell-based
Summary of the method: as §1

[19] = target: T1, gp41 NHR-derived target mimic peptide N39 (Human immunodeficiency virus type 1 group M subtype B, UniProt P04578); experiment: CD spectroscopy of lipopeptides in complex with target mimic peptide N39; assay type: binding, HIV-1; set-up: [θ]222: unit not given here; conditions: complex with N39, each peptide 10 μM in PBS; representative of 2 assays
T1 construct: the gp41 NHR-derived target mimic peptide N39
T1 sequence (P04578 528-566): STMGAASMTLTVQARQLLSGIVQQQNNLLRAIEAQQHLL
From the text: Spectra were corrected by subtracting a solvent blank.

[20] = lipopeptide alone, 10 μM in PBS; [θ]222 / -33,000; representative of 2 assays
[21] = Fig 1, replication-competent virus, mean ± SD of three assays in triplicate, read-out: Anti-HIV activity (IC50, pM) JRCSF infection
[22] = Table 2, JR-CSF, subtype B, R5, mean ± SD of 3 assays in triplicate, read-out: Mean IC50

| Compound | IC50 (HIV-1 89.6) [nM] | IC50 (HIV-1 CH040.c/2625) [nM] | IC50 (HIV-1 LAI) [nM] | IC50 [1] [nM] | IC50 [2] [nM] | IC50 [3] [nM] | IC50 [4] [nM] | IC50 [5] [nM] | IC50 [6] [nM] | IC50 [7] [nM] | IC50 [8] [nM] | IC50 [9] [nM] | IC50 [10] [nM] | IC50 [11] [nM] | IC50 [12] [nM] | IC50 [13] [nM] | IC50 [14] [nM] | IC50 [15] [nM] | IC50 [16] [nM] | IC50 [17] [nM] | further results |
| --- | --- | --- | --- | --- | --- | --- | --- | --- | --- | --- | --- | --- | --- | --- | --- | --- | --- | --- | --- | --- | --- |
| CCCCCCCCCCCCCCCCCC(=O)NCCCC[C@H](NC(=O)[C@H](CCC(=O)O)NC(=O)[C@H](CC(C)C)NC(=O)[C@H](CCCCN)NC(=O)[C@H](CCCCN)NC(=O)[C@H](CC(C)C)NC(=O)[C@H](CCC(=O)O)NC(=O)[C@H](CCC(=O)O)NC(=O)[C@H](CCC(=O)O)NC(=O)[C@H](CC(N)=O)NC(=O)[C@H](CCCCN)NC(=O)[C@H](CCCCN)NC(=O)[C@H](CCC(N)=O)NC(=O)[C@H](CCC(N)=O)NC(=O)[C@H](CCC(=O)O)NC(=O)[C@H](CCC(=O)O)NC(=O)[C@H](C)NC(=O)[C@H](CCCCN)NC(=O)[C@H](CCCCN)NC(=O)[C@H](CC(C)C)NC(=O)[C@H](CC(C)C)NC(=O)[C@H](CCC(=O)O)NC(=O)[C@H](CCC(=O)O)NC(=O)[C@@H](NC(C)=O)[C@@H](C)CC)C(N)=O [LP-90] (Ac-IEELLKKAEEQQKKNEEELKKLEK(Stearoyl)-NH2) | 0.0574 ± 0.0109 | 0.0502 ± 0.0138 | 0.00834 ± 0.00154 | 0.00442 ± 0.00028 | 0.0141 ± 0.00417 | 0.018 ± 0.00158 | 0.0175 ± 0.00772 | 0.0291 ± 0.00133 | 0.00214 ± 0.00013 | 0.0317 ± 0.00204 | 0.00785 ± 0.00122 | 0.0108 ± 0.00236 | 0.0225 ± 0.0026 | 0.00363 ± 0.00067 | 0.016 ± 0.00293 | 0.0122 ± 0.00083 | 0.0226 ± 0.0047 | 0.00482 ± 0.00091 | 0.00895 ± 0.0023 | 0.00881 ± 0.00046 | IC50 [18]: 0.0159 ± 0.00313 nM; IC50 (HIV-1JRCSF; [21]): 5.4 pM; IC50 (HIV-1JRCSF; [22]): 9.33 ± 1.97 pM; Helix content (%) [19]: 42%; [θ]222 [19]: -13989; Helix content (%) [20]: 30% |
| enfuvirtide [Lipopeptide T-20, reference compound] | 15.4 ± 5.88 | 30.9 ± 3.81 | 1.16 ± 0.103 | 2.85 ± 0.103 | 12.38 ± 0.109 | 84.4 ± 3.69 | 5.65 ± 0.366 | 123 ± 4.77 | 13.6 ± 2.04 | 165 ± 28.3 | 31 ± 2.67 | 11.5 ± 1.75 | 24.8 ± 1.88 | 15.7 ± 1.58 | 13.7 ± 1.85 | 9.62 ± 0.502 | 69.7 ± 0.698 | 17.6 ± 1.03 | 7.05 ± 1.33 | 22.7 ± 0.943 | IC50 [18]: 55 ± 2.9 nM; IC50 (HIV-1JRCSF; [21]): 4460 ± 1400 pM; IC50 (HIV-1JRCSF; [22]): 2970 ± 788 pM |

Source: article PMC6375636, “Monotherapy with a low-dose lipopeptide HIV fusion inhibitor maintains long-term viral suppression in rhesus macaques” (PLoS Pathogens, 2019)
